Assay results from US9463252B2, “Auristatin drug linker conjugates” (priority 2008, dated 2016).

Columns and labels:
HCT-116 (CD70−) = assay: Cytotoxicity of Auristatin-Peptide-h1F6 conjugates, CD70- control cell line; format: cell-based
Source text: (§1) The conjugates contain approximately 4 drugs per antibody.

786-O = assay: Cytotoxicity of Auristatin-Peptide-h1F6 conjugates, resazurin assay; format: cell-based, human; conditions: for IC50 786-0: Table 4
Source text: as §1

LP-1 = assay: as above; format: cell-based, human
Source text: as §1

L428 [1] = assay: Cytotoxicity of Auristatin-Peptide-cAC10 conjugates on CD30+ cells; format: cell-based; conditions: Table 6, ~4 drugs/Ab
Method: (§2) Following the procedure described in Example 57, Auristatin-Dipeptide-cAC10 antibody conjugates were evaluated on CD30+ positive cell lines, Karpas 299, L428 and L540cy. In addition, a control conjugate, cAC10-vc-PABC-MMAF, was used. […] The conjugates contain approximately 4 drugs per antibody.
(§3) Following the procedure described as Examples 57 and 58, the activities of Auristatin-Peptide-cAC10 conjugates were evaluated on CD30^+ cells, such as Karpas 299, L428, and L540cy. The activities of Auristatin-Peptide-hBU12 conjugates were evaluated on CD19^+ cells such as Ramos, SUDHL-4, and ARH-77. The activities of Auristatin-Peptide-anti-LIV-1 conjugates were evaluated on LIV-1 positive cell lines MCF-7 and SKOV-3. The activities of Auristatin-Peptide-BR96 conjugates were evaluated on Le^y positive cells H3396, RCA, and L2987. All conjugates contain approximately 4 drugs per antibody.

L428 [2] = assay: Cytotoxicity of Auristatin-Peptide-h1F6 conjugates, resazurin assay; format: cell-based; conditions: for IC50 L428: ~4 drugs/Ab
Source text: as §1

UMRC-3 = assay: as above; format: cell-based
Source text: as §1

U251 = assay: as above; format: cell-based; conditions: Table 4, ~4 drugs/Ab
Source text: as §1

Caki-1 = assay: as above; format: cell-based
Source text: as §1

L540cy = assay: Cytotoxicity of Auristatin-Peptide-cAC10 conjugates on CD30+ cells; format: cell-based, human; conditions: Table 6, ~4 drugs/Ab
Method: as §2, §3

Karpas 299 = assay: as above; format: cell-based, human; conditions: Table 6, ~4 drugs/Ab
Method: as §2, §3

[3] = Tolerability (MTD) of conjugates in mice; format: in vivo, mouse; conditions: h1F6 conjugates, single dose 50 mg/kg, FIG. 15
Method: The tolerability, measured as maximum tolerated dose (MTD), was determined in mice based on animals' weight loss after treatment. Animals were usually monitored for 14 days. A conjugate is considered to be tolerated at a determined dose if single iv treatment at such dose results in a transient weight loss of no more than 20% of initial body weight of animals and no other signs of toxicity are observed. […] AF-Met-(D)Lys and AF-Asn-(D)Lys conjugates were tolerated at doses as high as 100 mg/kg (FIG. 7). Corresponding conjugates of auristatins containing Methionine (AM) and Tryptophan (AW) at the C-terminal position of the drug were tolerated even better, up to 150 mg/kg (FIG. 8). […] Thus, the Auristatin-Dipeptide Drug Linkers provide ADCs with significant therapeutic window for therapeutic treatment (e.g., cancer).

Caki-2 = assay: Cytotoxicity of Auristatin-Peptide-h1F6 conjugates, resazurin assay; format: cell-based; conditions: Table 5; h1F6 conjugates, ~4 drugs/Ab
Method: as §1
Following the procedure described as Examples 57 and 58, Auristatin-Peptide-h1F6 conjugates were evaluated on CD70^+ cell, such as 786-O, Caki-1, Caki-2, and L428. Conjugates contain approximately 4 drugs per antibody.

[4] = Table 4, h1F6 conjugates, ~4 drugs/Ab
[5] = Table 9, h1F6-Drug(4) conjugates, mono- vs dipeptide linker
[6] = Table 5, h1F6 conjugates, ~4 drugs/Ab
[7] = Table 7, h1F6 conjugates, AF vs MMAF
[8] = Table 8, h1F6 conjugates, D vs L amino acid in second linker position

Row | Substance | IC50 HCT-116 (CD70−) (HCT-116 (CD70−); Table 4, ~4 drugs/Ab) [ng/mL] | IC50 786-0 (786-O; h1F6 conjugates, ~4 drugs/Ab) [ng/mL] | IC50 LP-1 (LP-1; [4]) | IC50 L428 (L428 [1]) [ng/mL] | IC50 L428 (L428 [2]; Table 4, h1F6 conjugates) [ng/mL] | IC50 UMRC-3 (UMRC-3; [4]) [ng/mL] | IC50 U251 (U251) [ng/mL] | IC50 Caki-1 (Caki-1; [4]) [ng/mL] | IC50 L540cy (L540cy) [ng/mL] | IC50 Karpas 299 (Karpas 299) [ng/mL] | also measured
1 | AF-Tyrosine-(D)Aspartic Acid-diaminoethane-propionyl maleimide [AF-Tyr-(D)Asp] | >1000 | 24 | 398 ng/mL | 0.06 | 27 | 32 | 72 | 9 | 0.7 | 0.6 | –
2 | AF-Isoleucine-Valine-diaminoethane-propionyl-maleimide [AF-Ile-Val] | >1000 | 3.4 | 19 ng/mL | – | 2.5 | 19.5 | 44.6 | 3.7 | – | – | –
3 | AF-Norvaline-(D)Aspartic Acid-diaminoethane-propionyl maleimide [AF-NorVal-(D)Asp] | >1000 | 28 | 537 ng/mL | 0.09 | 24 | 25 | 78 | 12 | 0.6 | 0.5 | –
4 | AF-Isoleucine-Proline-diaminoethane-propionyl maleimide [AF-Ile-Pro] | >1000 | 9.8 | 219 ng/mL | 0.1 | 5 | 16 | 45 | 9 | 0.7 | 0.6 | –
5 | AF-AsparticAcid-Valine-Diaminoethane-Propionyl-Maleimide [AF-Asp-Val] | >1000 | 18 | 234 ng/mL | – | 18 | 54 | 407 | 25 | – | – | –
6 | AF-Asparagine-diaminoethane-propionyl maleimide [AF-Asn] | – | – | – | – | – | – | – | – | – | – | IC50 786-O (786-O; [5]): 10 ng/mL; IC50 LP-1 (LP-1; [5]): 209 ng/mL; IC50 L-428 (L428 [2]; [5]): 9 ng/mL; IC50 UMRC-3 (UMRC-3; [5]): 28 ng/mL; IC50 Caki-1 (Caki-1; [5]): 6 ng/mL; tolerability at 50 mg/kg dose (in words) [3]: toxic
7 | AF-Trimethyllysine-Proline-diaminoethane-propionyl-maleimide [AF-Me3Lys-Pro] | >1000 | 20 | 298 ng/mL | 0.09 | 24 | 30 | 78 | 11 | 0.8 | 0.6 | –
8 | AF-Phenylglycine-(D)Lysine-diaminoethane-propionyl maleimide [AF-PhenylGly-(D)Lys] | >1000 | 339 | >10,000 ng/mL | 2 | 275 | 1096 | 98 | 44 | 6 | 21 | –
9 | vc-PABC-MMAF [reference compound] | >1000 | 7 | 22 ng/mL | 0.5 | 7 | 14 | 10 | 3 | 3 | 3 | IC50 HCT-116 (CD70−) (HCT-116 (CD70−); Table 5, ~4 drugs/Ab): >1000 ng/mL; IC50 786-O (786-O; [6]): 5 ng/mL; IC50 L428 (L428 [2]; Table 5, h1F6 conjugates): 4 ng/mL; IC50 Caki-1 (Caki-1; [6]): 12 ng/mL; IC50 Caki-2 (Caki-2): 11 ng/mL
10 | AF-β-alanine-(D)Aspartic Acid-diaminoethane-propionyl maleimide [AF-β-Ala-(D)Asp] | >1000 | 525 | >10,000 ng/mL | 0.5 | 1096 | 132 | 93 | 1585 | 1.6 | 371 | –
11 | AF-Asparagine-Valine-diaminoethane-propionyl-maleimide [AF-Asn-Val] | >1000 | 12.6 | 174 ng/mL | – | 11.7 | 46.8 | 251 | 22.3 | – | – | –
12 | AF-Methionine-(D)Lysine-diaminoethane-propionyl maleimide [AF-Met-(D)Lys] | >1000 | 55 | >10,000 ng/mL | 1.5 | 1698 | 132 | 98 | 25 | 3 | 2 | IC50 786-O (786-O; [7]): 12 ng/mL; IC50 786-O (786-O; [8]): 12 ng/mL; IC50 786-O (786-O; [5]): 12 ng/mL; IC50 LP-1 (LP-1; [7]): >1000 ng/mL; IC50 LP-1 (LP-1; [8]): >1000 ng/mL; IC50 LP-1 (LP-1; [5]): >1000 ng/mL; IC50 L-428 (L428 [2]; [7]): 158 ng/mL; IC50 L-428 (L428 [2]; [8]): 158 ng/mL; IC50 L-428 (L428 [2]; [5]): 158 ng/mL; IC50 UMRC-3 (UMRC-3; [7]): 182 ng/mL; IC50 UMRC-3 (UMRC-3; [8]): 182 ng/mL; IC50 UMRC-3 (UMRC-3; [5]): 182 ng/mL; IC50 Caki-1 (Caki-1; [7]): 9 ng/mL; IC50 Caki-1 (Caki-1; [8]): 9 ng/mL; IC50 Caki-1 (Caki-1; [5]): 9 ng/mL
13 | AF-Tyrosine-Valine-diaminoethane-propionyl-maleimide [AF-Tyr-Val] | >1000 | 3.7 | 34 ng/mL | – | 3.0 | 19.5 | 46.8 | 7.0 | – | – | –
